Laboratory results taken from publication PMC3163380, “Design, Synthesis and Biological Evaluation of Novel Pyrimido[4,5-d]pyrimidine CDK2 Inhibitors as Anti-Tumor Agents” (Scientia Pharmaceutica, 2011).

Experiments:
CDK2/CyclinA = molecular target: T1, CDK2/CyclinA (Homo sapiens, UniProt P24941); test: CDK2/cyclinA enzymatic activity inhibition assay (32P-ATP, histone H1); type: biochemical; details: mean of at least two independent experiments
T1 construct: hexa-histidine (N); made in house; host or cells: sf21 insect cells (baculovirus)

CDK4/CyclinD = CDK4/CyclinD (Homo sapiens, UniProt P11802); test: CDK4/CyclinD inhibition assay; type: biochemical; details: mean of at least two independent experiments
Sequence of CDK4/CyclinD (P11802 whole entry, species assumed, the tested form may be a part): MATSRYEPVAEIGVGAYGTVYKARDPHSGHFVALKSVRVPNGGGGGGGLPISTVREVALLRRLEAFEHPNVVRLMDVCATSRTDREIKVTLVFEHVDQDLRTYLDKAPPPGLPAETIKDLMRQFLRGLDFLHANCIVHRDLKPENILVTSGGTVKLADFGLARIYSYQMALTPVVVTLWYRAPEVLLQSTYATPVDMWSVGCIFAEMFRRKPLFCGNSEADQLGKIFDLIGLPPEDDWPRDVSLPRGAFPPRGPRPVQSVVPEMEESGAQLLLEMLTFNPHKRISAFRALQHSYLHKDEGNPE
Sequence of CDK4/CyclinD (P24385 whole entry partner, species assumed, the tested form may be a part): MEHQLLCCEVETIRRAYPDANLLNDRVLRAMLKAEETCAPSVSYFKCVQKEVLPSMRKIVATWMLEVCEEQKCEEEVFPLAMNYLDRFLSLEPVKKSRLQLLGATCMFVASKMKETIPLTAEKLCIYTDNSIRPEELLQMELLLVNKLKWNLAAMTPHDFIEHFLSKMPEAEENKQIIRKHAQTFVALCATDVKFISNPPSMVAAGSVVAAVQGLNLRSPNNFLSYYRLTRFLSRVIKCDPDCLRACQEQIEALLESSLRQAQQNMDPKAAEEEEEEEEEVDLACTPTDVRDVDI

[1] = molecular target: T2, human EGFR tyrosine kinase domain (Homo sapiens, UniProt P00533); test: EGFR tyrosine kinase inhibition assay; type: biochemical; details: mean of at least two independent experiments
T2 construct: C-terminal human EGFR tyrosine kinase domain
T2 sequence (P00533 712-979 limits assumed): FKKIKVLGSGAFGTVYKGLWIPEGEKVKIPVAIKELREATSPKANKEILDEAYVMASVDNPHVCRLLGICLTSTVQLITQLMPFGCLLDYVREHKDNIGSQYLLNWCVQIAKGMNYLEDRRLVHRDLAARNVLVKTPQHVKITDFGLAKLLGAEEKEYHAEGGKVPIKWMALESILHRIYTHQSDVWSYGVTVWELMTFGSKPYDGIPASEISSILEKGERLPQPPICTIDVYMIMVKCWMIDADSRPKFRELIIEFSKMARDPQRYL

HOP-92 = test: NCI primary anti-cancer assay (SRB), HOP-92; type: cell-based; details: Homo sapiens; 10^−5M; Non-Small Cell Lung Cancer HOP-92; read-out: Growth Inhibition %
Description: (§1) Evaluation of anti-cancer activities on pyrimido[4,5-d]pyrimidine derivatives were performed at the National Cancer Institute (NCI) USA. First the newly synthesized compounds have been evaluated in primary anti-cancer assay at 10^−5M concentration against 60 human tumor cell lines then the active compounds were tested at 5 different concentrations against the same 60 human tumor cell lines. The biological data for the newly synthesized compounds are compiled in table 2
(§2) The cytotoxic activity was measured in vitro for the newly synthesized compounds using the SulfoRhodamine-B stain (SRB) assay using the method of Skehan. Cells were plated in 96-multiwell microtiter plate (10^4 cells/well) for 24 h before treatment with the compound(s) to allow attachment of cell to the wall of the plate. Tested compounds were dissolved in DMSO and diluted with saline to the appropriate volume. Triplicate wells were prepared for each individual dose. Monolayer cells were incubated with the compound(s) for 48 h at 37 °C and in atmosphere of 5% CO2. After 48 h, cells were fixed, washed, and stained for 30 min with 0.4% (wt/vol) with SRB dissolved in 1% acetic acid. Unbound dye was removed by four washes with 1% acetic acid, and attached stain was recovered with Tris-EDTA buffer. Color intensity was measured in an ELISA reader. The relation between surviving fraction and drug concentration is plotted to get the survival curve for tumor cell line after the specified time.

T-47D = test: NCI primary anti-cancer assay (SRB), T-47D; type: cell-based; details: Homo sapiens, T47D; 10^−5M; Breast Cancer T-47D; read-out: Growth Inhibition %
Description: as §1, §2

RXF 393 = test: NCI primary anti-cancer assay (SRB), RXF 393; type: cell-based, human; details: Renal Cancer RXF 393; for inhibition at 10 µM: Homo sapiens, RXF 393, 10^−5M, read-out: Growth Inhibition %
Description: as §1, §2

HS 578T = test: NCI primary anti-cancer assay (SRB), HS 578T; type: cell-based; details: Homo sapiens; 10^−5M; Breast Cancer HS 578T; read-out: Growth Inhibition %
Description: as §1, §2

HL-60(TB) = test: NCI primary anti-cancer assay (SRB), HL-60(TB); type: cell-based; details: Homo sapiens; 10^−5M; Leukemia HL-60(TB); read-out: Growth Inhibition %
Description: as §1, §2

K-562 = test: NCI primary anti-cancer assay (SRB), K-562; type: cell-based; details: Homo sapiens, K562; 10^−5M; Leukemia K-562; read-out: Growth Inhibition %
Description: as §1, §2

MOLT-4 = test: NCI primary anti-cancer assay (SRB), MOLT-4; type: cell-based; details: Homo sapiens; 10^−5M; Leukemia MOLT-4; read-out: Growth Inhibition %
Description: as §1, §2

RPMI-8226 = test: NCI primary anti-cancer assay (SRB), RPMI-8226; type: cell-based; details: Homo sapiens; 10^−5M; Leukemia RPMI-8226; read-out: Growth Inhibition %
Description: as §1, §2

SF-539 = test: NCI primary anti-cancer assay (SRB), SF-539; type: cell-based; details: Homo sapiens; 10^−5M; CNS Cancer SF-539; read-out: Growth Inhibition %
Description: as §1, §2

A549/ATCC = test: NCI primary anti-cancer assay (SRB), A549/ATCC; type: cell-based; details: Homo sapiens; 10^−5M; Non-Small Cell Lung Cancer A549/ATCC; read-out: Growth Inhibition %
Description: as §1, §2

UO-31 = test: NCI primary anti-cancer assay (SRB), UO-31; type: cell-based; details: Homo sapiens; 10^−5M; Renal Cancer UO-31; read-out: Growth Inhibition %
Description: as §1, §2

SNB-75 = test: NCI primary anti-cancer assay (SRB), SNB-75; type: cell-based; details: Homo sapiens; 10^−5M; CNS Cancer SNB-75; read-out: Growth Inhibition %
Description: as §1, §2

MDA-MB-231/ATCC = test: NCI primary anti-cancer assay (SRB), MDA-MB-231/ATCC; type: cell-based; details: Homo sapiens; 10^−5M; Breast Cancer MDA-MB-231/ATCC; read-out: Growth Inhibition %
Description: as §1, §2

IGROV1 = test: NCI primary anti-cancer assay (SRB), IGROV1; type: cell-based; details: Homo sapiens, IGROV-1; 10^−5M; Ovarian Cancer IGROV1; read-out: Growth Inhibition %
Description: as §1, §2

UACC-257 = test: NCI primary anti-cancer assay (SRB), UACC-257; type: cell-based; details: Homo sapiens; 10^−5M; Melanoma UACC-257; read-out: Growth Inhibition %
Description: as §1, §2

OVCAR-8 = test: NCI primary anti-cancer assay (SRB), OVCAR-8; type: cell-based; details: Homo sapiens; 10^−5M; Ovarian Cancer OVCAR-8; read-out: Growth Inhibition %
Description: as §1, §2

[2] = test system: 60 human tumor cell lines; test: NCI primary anti-cancer assay, summary over tumor cell lines; type: cell-based; details: 10^−5M, Non-small cell lung cancer, Ovarian cancer, Leukemia and Melanoma lines / different tumor cell lines, read-out: growth inhibitions (range over cell lines)
Description: as §1, §2

Compound	IC50 (CDK2/CyclinA)	IC50 (CDK4/CyclinD)	IC50 CDK4/CyclinD (CDK4/CyclinD)	IC50 [1]	inhibition at 10 µM (HOP-92)	inhibition at 10 µM (T-47D)	inhibition at 10 µM (RXF 393)	melting point	inhibition at 10 µM (HL-60(TB))	inhibition at 10 µM (K-562)	inhibition at 10 µM (MOLT-4)	inhibition at 10 µM (RPMI-8226)	inhibition at 10 µM (A549/ATCC)	inhibition at 10 µM (UO-31)	inhibition at 10 µM (SNB-75)	inhibition at 10 µM (MDA-MB-231/ATCC)	inhibition at 10 µM (IGROV1)	inhibition at 10 µM (UACC-257)	also measured
O=c1[nH]c(SCc2ccccc2)nc2nc(Nc3ccc(NC(=S)Nc4ccccc4)cc3)nc(-c3ccc(O)cc3O)c12 [Compound 6a, 1-(4-{[7-(Benzylsulfanyl)-4-(2,4-dihydroxyphenyl)-5-oxo-5,6-dihydro-pyrimido[4,5-d]pyrimidin-2-yl]amino}phenyl)-3-phenylthiourea]	5 µM	> 10 µM	no activity	9.3 µM	103%	26.9%	33.8%	> 300 °C											
Cc1nc(Nc2ccc(NC(=S)Nc3ccccc3)cc2)nc2nc(Nc3cccc(Cl)c3)[nH]c(=O)c12 [Compound 7e, 1-[4-({7-[(3-Chlorophenyl)amino]-4-methyl-5-oxo-5,6-dihydropyrimido[4,5-d]pyrimidin-2-yl}amino)phenyl]-3-phenylthiourea]	0.25 µM	2.55 µM		4.9 µM	39.6%		113%		42.9%	28.2%	35%	42.8%							inhibition at 10 µM (HS 578T): 32.9%; inhibition at 10 µM (SF-539): 23.5%
Cc1cc(C)nc(NS(=O)(=O)c2ccc(Nc3nc(C)c4c(=O)[nH]c(Nc5ccc(S(=O)(=O)O)cc5)nc4n3)cc2)n1 [Compound 7i, 4-{[7-({4-[(4,6-Dimethylpyrimidin-2-yl)sulfamoyl]phenyl}amino)-5-methyl-4-oxo-3,4-dihydro-pyrimido[4,5-d]pyrimidin-2-yl]amino}benzenesulfonic acid]	> 10 µM	> 10 µM	no activity	8.1 µM		30.1%		> 300 °C					39.1%	30.6%	23.2%				inhibition at 10 µM (HS 578T): 26.2%
Cc1nc(Nc2ccc(NC(=S)Nc3ccccc3)cc2)nc2nc(SCc3ccccc3)[nH]c(=O)c12 [Compound 6c, 1-(4-{[7-(Benzylsulfanyl)-4-methyl-5-oxo-5,6-dihydropyrimido[4,5-d]pyrimidin-2-yl]amino}-phenyl)-3-phenylthiourea]	1.5 µM	3.11 µM		> 10 µM			124%	> 300 °C	24%	27.9%		33%	42.1%			23.1%	34.3%	25.2%	Growth Inhibition % (RXF 393; 10^−5M): 124.01%; inhibition at 10 µM (SF-539): 36.7%
Cc1cc(C)nc(NS(=O)(=O)c2ccc(Nc3nc(C)c4c(=O)[nH]c(Nc5cccc(Cl)c5)nc4n3)cc2)n1 [Compound 7f, 4-({7-[(3-Chlorophenyl)amino]-4-methyl-5-oxo-5,6-dihydropyrimido[4,5-d]pyrimidin-2-yl}amino)-N-(4,6-dimethylpyrimidin-2-yl)benzenesulfonamide]	0.05 µM	0.86 µM		> 10 µM	34.8%			> 300 °C	21.6%	26.5%		58.9%	52%	40.3%	28.5%	30.4%	54.4%	57.9%	inhibition at 10 µM (OVCAR-8): 21.8%; inhibition at 10 µM [2]: 50 to 70%
Cc1cc(C)nc(NS(=O)(=O)c2ccc(Nc3nc(C)c4c(=O)[nH]c(NCc5ccccc5)nc4n3)cc2)n1 [Compound 7c, 4-{[7-(Benzylamino)-4-methyl-5-oxo-5,6-dihydropyrimido[4,5-d]pyrimidin-2-yl]amino}-N-(4,6-dimethylpyrimidin-2-yl)benzenesulfonamide]	2.6 µM	> 10 µM	no activity	6.6 µM		23.4%			23.1%	32.8%	22.6%	50.7%	64.4%	39.5%	43.1%		61.7%	71.4%	inhibition at 10 µM [2]: 50 to 70%
Cc1cc(C)nc(NS(=O)(=O)c2ccc(Nc3nc(C)c4c(=O)[nH]c(SCc5ccccc5)nc4n3)cc2)n1 [Compound 6d, 4-{[7-(Benzylsulfanyl)-4-methyl-5-oxo-5,6-dihydropyrimido[4,5-d]pyrimidin-2-yl]amino}-N-(4,6-dimethylpyrimidin-2-yl)benzenesulfonamide]	2.5 µM	0.66 µM		7.8 µM	27%			> 300 °C			43.4%		21.2%						
O=c1[nH]c(Nc2cccc(Cl)c2)nc2nc(Nc3ccc(NC(=S)Nc4ccccc4)cc3)nc(-c3ccc(O)cc3O)c12 [Compound 7d, 1-[4-({7-[(3-Chlorophenyl)amino]-4-(2,4-dihydroxyphenyl)-5-oxo-5,6-dihydro-pyrimido[4,5-d]pyrimidin-2-yl}amino)phenyl]-3-phenylthiourea]	> 10 µM	6.88 µM	very poor activity	> 10 µM				> 300 °C				30.4%	44.7%	30.7%		21.4%	39.7%	79.5%	inhibition at 10 µM (OVCAR-8): 26.8%
